Test results from patent US10766902B2, “Wee-1 inhibiting pyrazolopyrimidinone compounds” (ALMAC DISCOVERY LIMITED, priority 2016, dated 2020).
pIC50: −log10 of the molar value.

These compounds were tested against Wee-1 kinase (Homo sapiens (Human), UniProt P30291) (assay: Measurement of Wee-1 kinase activity (ADP-Glo luminescence)). Settings: read-out: Wee1 IC50.
Type: biochemical
Summary of the method: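 Activated Wee-1 preincubated 30 min at RT with compound in Tris/MgCl2 buffer with BSA and DTT, then reacted 1 h at RT with poly(Lys,Tyr 4:1) (2.0 μg/mL) and 30 μM ATP as added aliquot. ADP formed measured by ADP-Glo luminescence; IC50 by non-linear regression of % inhibition.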

Sequence of Wee-1 kinase (P30291 whole entry): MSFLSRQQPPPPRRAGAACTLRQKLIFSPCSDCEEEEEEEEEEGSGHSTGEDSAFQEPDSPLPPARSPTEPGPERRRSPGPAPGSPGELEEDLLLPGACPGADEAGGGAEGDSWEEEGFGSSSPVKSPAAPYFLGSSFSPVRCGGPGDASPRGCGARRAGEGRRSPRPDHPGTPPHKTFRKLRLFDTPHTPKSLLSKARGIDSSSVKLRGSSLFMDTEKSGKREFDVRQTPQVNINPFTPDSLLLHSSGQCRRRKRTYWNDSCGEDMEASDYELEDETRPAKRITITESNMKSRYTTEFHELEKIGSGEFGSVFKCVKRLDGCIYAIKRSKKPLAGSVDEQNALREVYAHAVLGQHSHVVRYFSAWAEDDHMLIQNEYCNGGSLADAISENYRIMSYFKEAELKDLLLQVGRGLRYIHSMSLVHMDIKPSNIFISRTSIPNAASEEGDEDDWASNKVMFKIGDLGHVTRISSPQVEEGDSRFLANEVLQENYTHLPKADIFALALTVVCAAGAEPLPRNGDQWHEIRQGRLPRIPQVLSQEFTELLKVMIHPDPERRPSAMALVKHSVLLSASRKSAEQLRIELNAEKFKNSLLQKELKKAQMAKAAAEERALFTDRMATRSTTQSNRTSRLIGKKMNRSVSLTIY

pIC50 | SMILES
9.52 | C=CCn1c(=O)c2cnc(Nc3ccc(N4C[C@@H]5C[C@H]4CO5)cc3)nc2n1-c1cccc(N=S(C)(C)=O)n1 [Example 68, 1-(6-{[Dimethyl(oxo)-λ^6-sulfanylidene]amino}pyridin-2-yl)-6-({4-[(1S,4S)-2-oxa-5-azabicyclo[2.2.1]heptan-5-yl]phenyl}amino)-2-(prop-2-en-1-yl)-1H,2H,3H-pyrazolo[3,4-d]pyrimidin-3-one]
9.40 | C=CCn1c(=O)c2cnc(Nc3cnn(C4CCCCC4)c3)nc2n1-c1cccc(N=S(C)(C)=O)n1 [Example 96, 2-Allyl-6-((1-cyclohexyl-1H-pyrazol-4-yl)amino)-1-(6-((dimethyl(oxo)-λ^6-sulfaneylidene)amino)pyridin-2-yl)-1,2-dihydro-3H-pyrazolo[3,4-d]pyrimidin-3-one]
9.22 | CC(C)n1c(=O)c2cnc(Nc3ccc(Cl)cc3)nc2n1-c1cccc(N=S(C)(C)=O)n1 [Example 61, 6-[(4-Chlorophenyl)amino]-1-(6-{[dimethyl(oxo)-λ^6-sulfanylidene]amino}pyridin-2-yl)-2-(propan-2-yl)-1H,2H,3H-pyrazolo[3,4-d]pyrimidin-3-one]
8.85 | C=CCn1c(=O)c2cnc(Nc3ccc(F)cc3)nc2n1-c1cncc(N=S(C)(C)=O)n1 [Example 75, 1-(6-{[Dimethyl(oxo)-λ^6-sulfanylidene]amino}pyrazin-2-yl)-6-[(4-fluorophenyl)amino]-2-(prop-2-en-1-yl)-1H,2H,3H-pyrazolo[3,4-d]pyrimidin-3-one]
9.10 | C=CCn1cc(Nc2ncc3c(=O)n(CC=C)n(-c4cccc(N=S(C)(C)=O)n4)c3n2)cn1 [Example 95, 2-Allyl-6-((1-allyl-1H-pyrazol-4-yl)amino)-1-(6-((dimethyl(oxo)-λ^6-sulfaneylidene)amino)pyridin-2-yl)-1,2-dihydro-3H-pyrazolo[3,4-d]pyrimidin-3-one]
9.00 | C=CCn1c(=O)c2cnc(Nc3ccc(N4CCN(C)CC4)cc3)nc2n1-c1cccc(N=S(C)(C)=O)c1 [Example 16, 1-(3-{[Dimethyl(oxo)-λ^6-sulfanylidene]amino}phenyl)-6-{[4-(4-methylpiperazin-1-yl)phenyl]amino}-2-(prop-2-en-1-yl)-1H,2H,3H-pyrazolo[3,4-d]pyrimidin-3-one]
